In series [1] the target is recombinant hNK1R expressed in CHO cells (Homo sapiens, UniProt P25103). Briefly: Intracellular calcium mobilization (FLIPR) in CHO-hNK1 cells. Format: cell-based. The following applies: calcium mobilization, CHO-hNK1 cells; read-out: hNK1 EC50. As to the method:
(§1) CHO-hNK1 and CHO-hNK2 cells were seeded into black walled clear-bottom 384-well plates) at a density of 10,000 and 15,000 cells per well in 50 μL culture media, respectively, and grown overnight at 37° C. in a humidified CO2-incubator. Cells were washed in washing buffer using the EMBLA 384 instrument, leaving 20 μL of buffer per well after the final aspiration. Cells were then incubated at 37° C. with the cytoplasmic Ca2+ indicator Fluo-4 AM (final concentration 1 μM) in assay buffer (20 mM HEPES, 145 mM NaCl, 5 mM KCl, 5.5 mM glucose, 1 mM MgCl2 and 2 mM CaCl2, pH 7.4, 0.05% Pluronic F-127 and 0.1% BSA) containing 2.5 mM probenecid for […] (cell loading). Cells were then washed 3 times in washing buffer (20 mM HEPES, 145 mM NaCl, 5 mM KCl, 5.5 mM glucose, 1 mM MgCl2 and 2 mM CaCl2, pH 7.4 and 2.5 mM probenecid) using the EMBLA 384 instrument, leaving 30 μL of buffer in each well after the last wash. Loaded cell plates were transferred to the FLIPR machine and calcium responses were monitored as described below. A dual read-out FLIPR protocol was used, allowing for characterization of both agonist and antagonist profiles. For quality control, in each compound plate the signal was monitored by evaluating the responses to the reference standards (NKA and Substance P).
(§2) Concentration response curves of compounds were run in duplicate on two different occasions from the same stock solutions. Test solutions were prepared from 10 mM stock solutions in DMSO and 1 μL of each solution was stamped into V-bottom assay plates containing 49 μL assay buffer. The final concentration of DMSO was 0.5% in each well.
A general note: Calcium assays in cells follow changes in intracellular calcium, usually with a dye or a luminescent sensor.

Series [2] relates to anesthetized acute spinal cord injured (aSCI) rat. Briefly: Colorectal (bowel) pressure manometry in anesthetized aSCI rats. Format: in vivo. The following applies: doses >10 μg/kg SC. Here is the method: (§3) Methods: Studies were conducted in acutely spinal transected rats under isovolumetric bladder pressure recording conditions. Acute spinal cord injury (aSCI) is an in vivo model of isolated bladder smooth muscle contraction without reinforcement from micturition reflexes (i.e., myogenic, not neurogenic, contraction). Thus, it can be viewed as a model of severe bladder underactivity.
Animal preparation: In vivo studies were performed in anesthetized, acutely spinalized (T8-10 level) rats. Rats were anesthetized with urethane (1.2-1.4 g/kg subcutaneous injection). Surgical procedures were then performed with the addition of isoflurane anesthesia (0.05-1.5% in 02) as needed. […]
Bowel Contractility: Colorectal pressure manometry was performed via a latex balloon catheter (length 3-5 cm) inserted (˜4 cm) into the distal rectal/colon region. […] This allowed drug induced changes in colorectal pressure to be monitored. Parameters measured include peak colorectal pressure response, duration of time above baseline activity (in the 1st 5 min after drug administration), area under the curve (measured during the 1st 5 min after drug administration) and the number of contractile events after vehicle and drug administration. […]
(§4) Data analysis: Data were examined qualitatively and quantitatively. The mean, standard deviation and standard error of the mean were calculated using MICROSOFT EXCEL.

The nature of series [3]: Saline solubility of heptapeptides. Format: physicochemical. As to the method: Heptapeptides A-K shown below in Table 1 (SEQ ID NOs: 1-11) were synthesized according to standard Fmoc-mediated solid-phase techniques and purified under typical C18 reverse-phase conditions.
Compounds D-K were considered to be insoluble in saline (<1 mg/mL).

Series [4] concerns anesthetized acute spinal cord injured (aSCI) rat. Briefly: Isovolumetric bladder pressure in anesthetized acute spinal cord injured (aSCI) rats. It counts as in vivo. As to the method:
as §3
Animal preparation: In vivo studies were performed in anesthetized, acutely spinalized (T8-10 level) rats. Rats were anesthetized with urethane (1.2-1.4 g/kg subcutaneous injection). Surgical procedures were then performed with the addition of isoflurane anesthesia (0.05-1.5% in 02) as needed.
For aSCI, the skin and muscle on the dorsal side at the level of the lower thoracic vertebrae were incised and the spinal cord was carefully exposed by a laminectomy and transected at the T8-T10 spinal level. Gelfoam was placed at the incision site and the muscle and skin overlying the vertebrae were closed with wound clips. The spinal cord was cut at least 60 min before starting the experimental protocol. […]
as §4

Series [5] has as its target T1, recombinant hNK2R expressed in CHO cells (Homo sapiens, UniProt P21452).
T1 sequence (P21452 1-398): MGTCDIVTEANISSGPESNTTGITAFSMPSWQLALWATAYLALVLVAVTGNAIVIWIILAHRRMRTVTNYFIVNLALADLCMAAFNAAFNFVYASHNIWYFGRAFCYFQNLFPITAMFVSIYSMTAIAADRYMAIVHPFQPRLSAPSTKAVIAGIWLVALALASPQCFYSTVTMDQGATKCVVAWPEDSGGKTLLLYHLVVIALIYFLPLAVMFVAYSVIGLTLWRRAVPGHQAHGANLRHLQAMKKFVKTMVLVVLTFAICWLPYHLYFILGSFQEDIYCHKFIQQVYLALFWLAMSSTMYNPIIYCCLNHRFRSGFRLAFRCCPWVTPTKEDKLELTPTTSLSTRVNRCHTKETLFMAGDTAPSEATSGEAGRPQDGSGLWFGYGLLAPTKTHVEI
Nature of the series: Intracellular calcium mobilization (FLIPR) in CHO-hNK2 cells. Format: cell-based. As to the method: as §1, §2

Each structure is given as a SMILES string. Where a SMILES comes first, the peptide text is derived from it.

A word on the EC50: it is the concentration needed to bring the measured effect to its halfway point. For orientation: solubility means how much of the substance goes into solution per volume. A lower solubility goes with a poorly soluble substance.

recombinant hNK1R expressed in CHO cells, sequence (P25103 whole entry): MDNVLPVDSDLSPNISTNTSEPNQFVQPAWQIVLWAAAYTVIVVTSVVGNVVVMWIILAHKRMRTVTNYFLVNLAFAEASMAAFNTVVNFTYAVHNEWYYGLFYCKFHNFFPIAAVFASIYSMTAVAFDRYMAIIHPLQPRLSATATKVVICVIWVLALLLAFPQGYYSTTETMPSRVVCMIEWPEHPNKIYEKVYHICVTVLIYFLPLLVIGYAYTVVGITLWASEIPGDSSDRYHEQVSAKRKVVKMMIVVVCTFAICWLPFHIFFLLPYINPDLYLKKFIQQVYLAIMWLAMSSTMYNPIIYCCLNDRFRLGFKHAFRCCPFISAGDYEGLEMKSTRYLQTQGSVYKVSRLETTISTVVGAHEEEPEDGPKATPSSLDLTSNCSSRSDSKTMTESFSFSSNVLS

Regarding `CCCC[C@H](NC(=O)[C@H](CC(C)C)N(C)C(=O)CNC(=O)[C@@H](NC(=O)[C@H](Cc1ccccc1)NC(=O)[C@H](CCCNC(=N)N)NC(=O)[C@@H](N)CC(=O)O)C(C)C)C(N)=O` [Compound B, Asp-Arg-Phe-Val-Gly-(NMe-Leu)-Nle-NH2] (HELM PEPTIDE1{D.R.F.V.G.[meL].[Nle].[am]}$$$$V2.0; N-terminus assumed), the EC50 in series [1] was 5.84 nM; in series [5] (calcium mobilization, CHO-hNK2 cells, read-out: hNK2 EC50) it was 0.08 nM. For the same compound, the “bowel activity (bowel pressure AUC, first 5 min)” value in series [2] is listed as “measurable increases in bowel activity”. For the same compound, the solubility in series [3] was over 20 mg/mL. For the same compound, in series [4] (SC, anesthetized aSCI rat), the “onset of increase in bladder contraction pressure” value is listed as under 2 min. Besides, the “bladder activity (peak bladder pressure)” value in series [4] (doses >10 μg/kg SC, aSCI rat) was “measurable increases in bladder activity”. Moreover, the hNK2 selectivity ratio in series [5] (ratio of EC50s hNK1R/hNK2R) is reported as 70.

The record behind these values is patent US11352391B2, “Compositions for inducing urinary voiding and defecation” (Dignify Therapeutics, LLC, priority 2017, dated 2022).
